Where a name gives a salt, the structure may show the parent alone.
How the values were obtained:
[1] = test system: advanced idiopathic Parkinson's disease complicated by "peak-dose" dyskinesia; assay: Double-blind cross-over study, peak-dose dyskinesia after l-dopa challenge in advanced idiopathic Parkinson's disease; type: in vivo, patients; details: first hour in the "on" state after l-dopa challenge; add-on 2.5 to 10 mg b.i.d. versus placebo
Text: A typical study to investigate the efficacy of the compounds according to the invention for adverse effects in Parkinson's disease is described in the following. 40 patients of either sex with advanced idiopathic Parkinson's disease complicated by "peak-dose" dyskinesia participate in a double-blind, cross-over study. The main inclusion criteria are Hoehn & Yahr stage ≥ 2.5 (lit.: Hoehn H.M. et al, Neurology 1967; 17: 427-442), aged 40-75 years, symptom duration of at least 5 years, and a I-dopa treatment duration of at least 3 years. trans-4-[4-(3-chloro-4-methoxybenzylamino)-benzothieno-[2,3-d]pyrimidin-2-yl]cyclohexanecarboxylic acid sodium or ethanolamine salt or placebo is administered as "add on" to the conventional Parkinson treatment; which is maintained unchanged during the whole study. The dose of blinded medication is titrated over a period of 3 weeks in a range from 2.5 to 10 mg b.i.d. Then the medication is kept constant for 1 week. Before the start of titration and at the end of the treatment period a I-dopa challenge is performed according to P. Damier et al. (Movement Disord,1999, 14 (Suppl. 1), 54-59) using video recording. The main outcome measure of the protocol is the mean score for dyskinesia during the first hour in the "on" state after I-dopa challenge. […]

[2] = test system: idiopathic Parkinson's disease; assay: Double-blind add-on study in idiopathic Parkinson's disease (UPDRS); type: in vivo, patients; details: add-on 2.5 to 10 mg b.i.d. versus placebo
Text: A typical study to investigate the efficacy of the compounds according to the invention in the treatment of idiopathic Parkinson's disease is described in the following. 180 patients of either sex with idiopathic Parkinson's disease participate in a double-blind study. The main inclusion criteria are Hoehn & Yahr stage ≥ 2.0 (Hoehn H.M. et al, Neurology 1967; 17: 427-442), aged 50-80 years, symptom duration of at least 5 years. Trans-4-[4-(3-chloro-4-methoxybenzylamino)-benzothieno-[2,3-d]pyrimidin-2-yl]cyclohexanecarboxylic acid or placebo is administered as "add on" to the conventional Parkinson treatment, which is maintained unchanged during the whole study. The dose of blinded medication is titrated over a period of 4 weeks in a range from 2.5 to 10 mg b.i.d. Then the medication is kept constant for 1 week. Before the start of titration, at the end of the treatment period and 2 weeks after the end of the tiration period an assessment is performed in each patients using the unified Parkinson's disease rating scale (UPDRS part I to V according to S. Fahn et al., in: Recent developments in Parkinson's disease, vol. 2, MacMillan health information 1987, 153-163). […]

MSA patients = assay: Placebo-controlled cross-over add-on study in MSA patients (UPDRS); type: in vivo; details: add-on 2.5 to 20 mg b.i.d. versus placebo
Text: A typical study to investigate the efficacy of the compounds according to the invention in MSA patients encompasses 30 patients of either sex with a symptom duration of at least 5 years and a significant reduction of central dopamine receptors in positron emission tomography (PET) scan. The study design is similar to that described above for Parkinson's disease. Trans-4-[4-(3-chloro-4-methoxybenzylamino)-benzothieno-[2,3-d]pyrimidin-2-yl]cyclohexanecarboxylic acid sodium or ethanolamine salt or placebo is titrated as "add on" to the conventional treatment (dose range 2.5 to 20 mg b.i.d.). Before the start of titration and at the end of the treatment period a complete UPDRS assessment is performed in each patient (primary outcome measure). After a 2-week wash-out period the two study arms are crossed over and the protocol is repeated.

tardive dyskinesia = assay: Double-blind cross-over add-on study in tardive dyskinesia (AIMS); type: in vivo, schizophrenic (DSM-III-R) inpatients; details: add-on to antipsychotic treatment, 2.5 to 20 mg b.i.d., compared with placebo period
Text: Tardive dyskinesia is a common adverse effect of long-term treatment with neuroleptics. A typical study to investigate the efficacy of the compounds according to the invention in tardive dyskinesia is described in the following. 32 schizophrenic (DSM-III-R) inpatients aged 25 - 60 years on long-term stable antipsychotic treatment (duration of at least 5 years) entered the study. Trans-4-[4-(3-chloro-4-methoxybenzylamino)-benzothieno-[2,3-d]pyrimidin-2-yl]cyclohexanecarboxylic acid sodium or ethanolamine salt or placebo is administered as "add on" to the antipsychotic treatment, which is kept constant during the whole study. The dose of blinded medication is titrated over a period of 3 weeks in a range from 2.5 to 20 mg b.i.d. Then the medication is maintained under double-blind conditions for 2 weeks. After a 2-week wash-out period, the test drugs are crossed over. Assessments of tardive dyskinesia by means of the Abnormal Involuntary Movement Scale (AIMS, see obove) and of Parkinsonian extrapyramidal side effects (UPDRS, see above) are made pretreatment and posttreatment.

Question: Which mean dyskinesia scores [1] does the source give for COc1ccc(CNc2nc([C@H]3CC[C@H](C(=O)O)CC3)nc3sc4ccccc4c23)cc1Cl [trans-4-[4-(3-chloro-4-methoxybenzylamino)-benzothieno-[2,3-d]pyrimidin-2-yl]cyclohexanecarboxylic acid sodium or ethanolamine salt] here?
Answer: The mean dyskinesia scores was “significant clinical improvement”.

Question: And the UPDRS scores [2]?
Answer: Its UPDRS scores is “significant clinical improvement”.

Question: And the UPDRS (MSA patients)?
Answer: The UPDRS was “significant clinical improvement”.

Question: What about the AIMS scores (tardive dyskinesia) of the same compound?
Answer: The AIMS scores was “significantly lower than during placebo period”.

From patent EP1543832A2, “Use of trans-4[4-(3-chloro-4-methoxy-benzylamino) benzothieno[2,3-d]pyrimidin-2-yl]-cyclohexanecarboxylic acid in the treatment of extrapyramidal movement disorders” (MERCK PATENT GmbH, priority 2003, dated 2005)
